From US11407977B2, “Tissue scaffolds for electrically excitable cells” (Innovative Surface Technologies, Inc., priority 2013, dated 2022)

Tested on: bioartificial rat hippocampal brain slice
Assay: Evoked fEPSP field recording on bioartificial tissue scaffold with antagonist cocktail
Format: cell-based
Conditions: cocktail in ACSF: CNQX 10 microM, APV 50 microM, Bicuculline Methbromide 50 microM; 10 minute wash-in; 28 d.i.v.; drug-subtracted average fEPSP, FIG. 12
Method: Dissociated hippocampal cells were seeded on open-field scaffolds and grown in an incubator as described in Example 9, to generate bioartificial open field hippocampal brain tissue “slices.” FIG. 11 is a photo micrograph of the bioartificial tissue, on its scaffold, in a conventional field recording chamber.
Bioartificial tissue scaffolds were removed from the incubator for electrophysiological testing between 14-90 days in vitro (d.i.v.). For electrophysiological field recordings, bioartificial tissue scaffolds were suspended on a nylon mesh in a small (350-400 μl) recording chamber (FIG. 11) and perfused with artificial cerebrospinal fluid (ACSF) at a rate of 2.5-3 ml/min (submerged mode). The temperature in the recording chamber was held at 30-32° C. Recordings were made using an ACSF-filled glass micropipette (2-4 MΩ) positioned as shown (FIG. 6) and connected via a head stage to the amplifier (A-M Systems model 1800). Signals were digitized at 100 kHz using a Digidata 1550 series interface (Axon instruments) running ClampEx 10.4. Synaptic responses were evoked by electrical stimulation using a bipolar tungsten electrode (tip spacing, 140 micrometers; Frederick Haer Company) and a 100 microsecond square wave test pulse was delivered at intervals of twenty seconds (FIG. 6). Stimulus-response relationship was established over the range of 0-1000 microV. […]

Row | SMILES | effect on evoked fEPSP
1 | N#Cc1cc2[nH]c(=O)c(=O)[nH]c2cc1[N+](=O)[O-] [CNQX] | sensitivity of the bioartificial rat hippocampal brain slice
2 | N[C@@H](CCCP(=O)(O)O)C(=O)O [APV] | sensitivity of the bioartificial rat hippocampal brain slice
